{
  "source": "patent US8455544B2",
  "about": "“Synthetic triterpenoids and methods of use in the treatment of disease” (Reata Pharmaecuticals, Inc., priority 2008, dated 2013)",
  "key": {"[1]": {"system": "IFNγ-induced NO production in RAW264.7 macrophages", "assay": "Suppression of IFNγ-induced NO production (Griess reagent system)", "format": "cell-based", "conditions": "Mus musculus; RAW264.7, pre-treated 2 hours, then 20 ng/ml IFNγ for 24 hours"}, "[2]": {"system": "patients with diabetic nephropathy", "assay": "Phase II clinical trial in patients with diabetic nephropathy (type 2 diabetes with CKD)", "format": "in vivo, human", "description": "Serum creatinine has also been measured in patients with chronic kidney disease (CKD) enrolled in an open label Phase II clinical trial of RTA 402. These patients received RTA 402 once daily at three dose levels, 25 mg, 75 mg and 150 mg, for a total of 28 days.\nA primary outcome measure for this study is determining the effects of RTA 402 administered orally at the three dose strengths on the glomerular filtration rate (as estimated by the MDRD formula) in patients with diabetic nephropathy.\nSecondary outcome measures include: (1) an evaluation of the safety and tolerability of oral RTA 402 administered orally at the three different doses, in this patient population; (2) an evaluation of the effects of RTA 402 administered orally at the three dose strengths on the serum creatinine level, creatinine clearance, and urine albumin/creatinine ratio in patients with diabetic nephropathy; (3) an evaluation of the effects of RTA 402 administered orally at the three dose strengths on hemoglobin A1c in all patients enrolled and on insulin response by the hyperinsulinemic euglycemic clamp test in patients enrolled at only one of the study centers; (4) an evaluation of the effects of RTA 402 at the three different doses on a panel of markers of inflammation, renal injury, oxidative stress, and endothelial cell dysfunction.\nThe patient population selected for this study all had type 2 diabetes with CKD. Most had been diagnosed with poor glycemic control for two decades. CKD was established through elevated serum creatinine (SCr) levels. Most of the patients had been diagnosed with cardiovascular disease (CVD) and most were receiving standard of care (SOC) treatment for diabetes, CKD and CVD, (e.g., insulin, ACEI/ARB, β-blocker, diuretic, and statin). The baseline demographic can be summarized as follows:\nThe patient inclusion criteria were as follows: (1) diagnosis of type 2 diabetes; (2) serum creatinine in women 1.3-3.0 mg/dL (115-265 μmol/L), inclusive, and in men 1.5-3.0 mg/dL (133-265 μmol/L), inclusive; (3) patient must agree to practice effective contraception; (4) patient must have a negative urine pregnancy test within 72 hours prior to the first dose of study medication; (5) patient is willing and able to cooperate with all aspects of the protocol and is able to communicate effectively; (6) patient is willing and able to provide written informed consent to participate in this clinical study. […]"}, "[3]": {"system": "circulating endothelial cells (CECs)", "assay": "Circulating endothelial cells (CECs) and iNOS-positive CECs, Phase II study", "format": "in vivo, human", "from_the_text": "The mean number of CECs in cells/mL is shown for intent-to-treat (ITT) and elevated baseline groups, both before and after the 28 day RTA treatment. The reduction for the Intent-to-treat group was approximately 20%, and the reduction in the elevated baseline group (>5 CECs/ml) was approximately 33%. The fraction of iNOS-positive CECs was reduced approximately 29%.\nCECs were isolated from whole blood by using CD146 Ab (an antibody to the CD146 antigen that is expressed on endothelial cells and leukocytes). After CEC isolation, a FITC (fluorescein isothiocyanate) conjugated CD105 Ab (a specific antibody for endothelial cells) is used to identify CECs using the CellSearch™ system. A fluorescent conjugate of CD45 Ab was added to stain the leukocytes, and these were then gated out. For a general overview of this method, see Blann et al., (2005), which is incorporated herein by reference in its entirety. CEC samples were also assessed for the presence of iNOS by immunostaining."}, "[4]": {"system": "NQO1 in Hepa1c1c7 murine hepatoma cells", "conditions": "concentration required to induce a two-fold increase in expression of NQO1, Hepa1c1c7 cells; cited from earlier work"}},
  "data": [
    {"smiles": "COC(=O)[C@]12CCC(C)(C)C[C@H]1[C@H]1C(=O)C=C3[C@@]4(C)C=C(C#N)C(=O)C(C)(C)[C@@H]4CC[C@@]3(C)[C@]1(C)CC2", "note": "[RTA 402, methyl-2-cyano-3,12-dioxooleana-1,9-dien-28-oic acid]", "values": [
      {"measurement": "IC50", "setting": "[1]", "value": 2.2, "unit": "nM"},
      {"measurement": "A1c reduction", "setting": "[2]; 28 days, elevated baseline (≧7.0 at baseline), n=16", "value": 0.50},
      {"measurement": "Hemoglobin % A1c reduction", "setting": "[2]; 28 days, elevated baseline (≧7.0 at baseline), n=35", "value": 0.50, "unit": "% A1c"},
      {"measurement": "A1c reduction", "setting": "[2]; 28 days, intent-to-treat, n=21, on top of standard of care", "value": 0.34},
      {"measurement": "Hemoglobin % A1c reduction", "setting": "[2]; 28 days, intent-to-treat, n=56", "value": "approximately 0.25 % A1c"},
      {"measurement": "GFR increase, response rate", "setting": "[2]; 28 days, n=22", "value": 86, "unit": "%"},
      {"measurement": "GFR improvement", "setting": "[2]; 28 days, patients with Stage 4 renal disease", "value": "> 30", "unit": "%"},
      {"measurement": "Mean % A1c reduction", "setting": "[2]; 28 days, patients with advanced (Stage 4) renal disease (GFR 15-29 ml/min)", "value": "approximately 0.77 % A1c"},
      {"measurement": "Eight measures of renal function and status", "setting": "[2]; serum creatinine based eGFR, creatinine clearance, BUN, serum phosphorus, serum uric acid, Cystatin C, Adiponectin, Angiotensin II", "value": "improve significantly"},
      {"measurement": "Reduction of mean number of CECs", "setting": "[3]; 28 days, elevated baseline group (>5 CECs/ml)", "value": "approximately 33%"},
      {"measurement": "Reduction in CECs", "setting": "[3]; 28 days, elevated baseline group, n=14, p=0.02", "value": 40, "unit": "%"},
      {"measurement": "Reduction of the fraction of iNOS-positive CECs", "setting": "[3]; 28 days, immunostaining", "value": "approximately 29%"},
      {"measurement": "Reduction of mean number of CECs", "setting": "[3]; 28 days, intent-to-treat group", "value": "approximately 20%"},
      {"measurement": "Reduction in CECs", "setting": "[3]; 28 days, intent-to-treat group, n=20", "value": 27, "unit": "%"},
      {"measurement": "Patients with a normal level for CECs post-treatment", "setting": "[3]; of the elevated baseline group, n=14", "value": "nine"},
      {"measurement": "Normalization of CEC values (≦5 cells/mL), patients", "setting": "[3]; patients with elevated baseline", "value": "11 out of the 19"},
      {"measurement": "NQO1 CD", "setting": "[4]", "value": 1.0, "unit": "nM"}
    ]}
  ]
}
